Data taken from patent publication US20160067674A1, “LIGANDS AND METHODS FOR ISOLATING OR REMOVING PROTEINS” (PreviPharma AG, priority 2014, published 2016).
Starred links: 1 amine or outer side, 2 acyl side, 3 side chain; linkers in the order of their positions; H or OH if unused. No end group written: not given here. *: point of attachment. code X = linker with the sequence GSGSGSG, O=C(CNC(=O)[C@H](CO)NC(=O)CN[*:1])N[C@@H](CO)C(=O)NCC(=O)N[C@@H](CO)C(=O)NCC(=O)[*:2]; Biotin = O=C1N[C@H]2[C@H](CS[C@H]2CCCCC(=O)*)N1

Legend:
factor V or factor VIII = test: Peptide array of Protein C sequence, binding affinity towards factor V or factor VIII; conditions: compared with sequences i) to iii)
Description: (§1) In this manner, the sequences of Protein A, Protein G, Protein H and FcRn were investigated for peptides binding to IgG. In addition, the sequence of Protein C was investigated for peptides binding to factor V and factor VIII.

factor VIII = factor VIII (Homo sapiens, UniProt P00451); test: Peptide array of Protein C sequence for peptides binding to factor VIII
factor VIII, sequence (P00451 20-2351, species assumed): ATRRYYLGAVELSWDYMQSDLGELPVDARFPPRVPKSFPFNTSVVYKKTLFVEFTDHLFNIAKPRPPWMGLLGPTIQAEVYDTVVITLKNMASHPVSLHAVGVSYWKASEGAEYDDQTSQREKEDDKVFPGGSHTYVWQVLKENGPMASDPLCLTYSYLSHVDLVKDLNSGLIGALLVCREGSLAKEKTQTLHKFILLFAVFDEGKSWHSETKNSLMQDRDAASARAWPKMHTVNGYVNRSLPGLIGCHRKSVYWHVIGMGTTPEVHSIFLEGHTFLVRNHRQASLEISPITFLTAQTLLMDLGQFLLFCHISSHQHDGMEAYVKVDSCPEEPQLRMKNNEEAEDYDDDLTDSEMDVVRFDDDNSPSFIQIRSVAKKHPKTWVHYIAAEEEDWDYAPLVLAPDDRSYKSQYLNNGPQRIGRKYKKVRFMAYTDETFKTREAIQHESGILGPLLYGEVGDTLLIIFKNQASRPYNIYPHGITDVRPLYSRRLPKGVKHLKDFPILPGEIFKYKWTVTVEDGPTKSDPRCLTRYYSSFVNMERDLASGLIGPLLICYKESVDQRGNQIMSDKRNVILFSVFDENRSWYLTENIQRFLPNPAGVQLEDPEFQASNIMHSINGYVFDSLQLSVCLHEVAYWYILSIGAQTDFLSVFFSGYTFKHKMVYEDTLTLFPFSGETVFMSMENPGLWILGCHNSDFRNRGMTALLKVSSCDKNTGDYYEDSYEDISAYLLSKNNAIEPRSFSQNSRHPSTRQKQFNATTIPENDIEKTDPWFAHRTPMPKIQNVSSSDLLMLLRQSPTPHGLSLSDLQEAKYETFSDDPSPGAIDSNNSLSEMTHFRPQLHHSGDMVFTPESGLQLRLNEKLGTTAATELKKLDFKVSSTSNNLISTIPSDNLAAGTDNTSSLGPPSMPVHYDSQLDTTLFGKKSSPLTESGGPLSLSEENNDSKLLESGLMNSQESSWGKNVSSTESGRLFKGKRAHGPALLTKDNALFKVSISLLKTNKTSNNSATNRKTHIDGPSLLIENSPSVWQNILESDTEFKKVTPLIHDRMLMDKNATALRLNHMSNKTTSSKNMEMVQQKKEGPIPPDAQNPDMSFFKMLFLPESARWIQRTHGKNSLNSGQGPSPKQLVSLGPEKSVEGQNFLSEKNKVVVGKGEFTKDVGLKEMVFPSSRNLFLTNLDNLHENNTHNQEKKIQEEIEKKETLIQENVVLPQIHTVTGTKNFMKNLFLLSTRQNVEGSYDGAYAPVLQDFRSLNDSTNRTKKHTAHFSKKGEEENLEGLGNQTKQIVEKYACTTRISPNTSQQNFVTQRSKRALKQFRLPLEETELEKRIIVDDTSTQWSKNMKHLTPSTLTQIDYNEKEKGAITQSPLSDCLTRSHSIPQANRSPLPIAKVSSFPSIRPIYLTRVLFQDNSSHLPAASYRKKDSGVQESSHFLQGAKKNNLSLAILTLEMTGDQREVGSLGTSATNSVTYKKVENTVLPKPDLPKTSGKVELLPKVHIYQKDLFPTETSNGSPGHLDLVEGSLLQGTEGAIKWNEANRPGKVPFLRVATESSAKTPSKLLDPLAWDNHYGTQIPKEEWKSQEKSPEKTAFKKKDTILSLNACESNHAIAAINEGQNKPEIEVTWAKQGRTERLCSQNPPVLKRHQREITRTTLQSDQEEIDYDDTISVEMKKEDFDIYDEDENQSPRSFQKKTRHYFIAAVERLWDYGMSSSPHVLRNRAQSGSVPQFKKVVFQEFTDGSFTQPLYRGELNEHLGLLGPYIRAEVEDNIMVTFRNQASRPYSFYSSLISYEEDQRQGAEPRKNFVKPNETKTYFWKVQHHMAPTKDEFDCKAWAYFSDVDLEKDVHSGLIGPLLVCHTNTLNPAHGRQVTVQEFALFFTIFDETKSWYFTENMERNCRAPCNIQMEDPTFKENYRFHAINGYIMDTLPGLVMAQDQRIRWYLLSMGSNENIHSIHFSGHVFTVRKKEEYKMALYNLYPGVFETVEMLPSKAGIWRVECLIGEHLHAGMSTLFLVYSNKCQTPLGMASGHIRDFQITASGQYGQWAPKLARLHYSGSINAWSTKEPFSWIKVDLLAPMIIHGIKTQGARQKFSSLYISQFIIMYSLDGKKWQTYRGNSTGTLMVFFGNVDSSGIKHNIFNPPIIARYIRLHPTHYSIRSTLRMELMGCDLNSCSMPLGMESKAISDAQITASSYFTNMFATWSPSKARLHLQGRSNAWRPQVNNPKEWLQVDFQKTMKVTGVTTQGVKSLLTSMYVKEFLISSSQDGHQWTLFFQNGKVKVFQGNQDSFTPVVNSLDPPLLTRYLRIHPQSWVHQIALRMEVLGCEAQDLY
Description: as §1

factor V = factor V (Homo sapiens, UniProt P12259); test: Peptide array of Protein C sequence for peptides binding to factor V
factor V, sequence (P12259 29-2224): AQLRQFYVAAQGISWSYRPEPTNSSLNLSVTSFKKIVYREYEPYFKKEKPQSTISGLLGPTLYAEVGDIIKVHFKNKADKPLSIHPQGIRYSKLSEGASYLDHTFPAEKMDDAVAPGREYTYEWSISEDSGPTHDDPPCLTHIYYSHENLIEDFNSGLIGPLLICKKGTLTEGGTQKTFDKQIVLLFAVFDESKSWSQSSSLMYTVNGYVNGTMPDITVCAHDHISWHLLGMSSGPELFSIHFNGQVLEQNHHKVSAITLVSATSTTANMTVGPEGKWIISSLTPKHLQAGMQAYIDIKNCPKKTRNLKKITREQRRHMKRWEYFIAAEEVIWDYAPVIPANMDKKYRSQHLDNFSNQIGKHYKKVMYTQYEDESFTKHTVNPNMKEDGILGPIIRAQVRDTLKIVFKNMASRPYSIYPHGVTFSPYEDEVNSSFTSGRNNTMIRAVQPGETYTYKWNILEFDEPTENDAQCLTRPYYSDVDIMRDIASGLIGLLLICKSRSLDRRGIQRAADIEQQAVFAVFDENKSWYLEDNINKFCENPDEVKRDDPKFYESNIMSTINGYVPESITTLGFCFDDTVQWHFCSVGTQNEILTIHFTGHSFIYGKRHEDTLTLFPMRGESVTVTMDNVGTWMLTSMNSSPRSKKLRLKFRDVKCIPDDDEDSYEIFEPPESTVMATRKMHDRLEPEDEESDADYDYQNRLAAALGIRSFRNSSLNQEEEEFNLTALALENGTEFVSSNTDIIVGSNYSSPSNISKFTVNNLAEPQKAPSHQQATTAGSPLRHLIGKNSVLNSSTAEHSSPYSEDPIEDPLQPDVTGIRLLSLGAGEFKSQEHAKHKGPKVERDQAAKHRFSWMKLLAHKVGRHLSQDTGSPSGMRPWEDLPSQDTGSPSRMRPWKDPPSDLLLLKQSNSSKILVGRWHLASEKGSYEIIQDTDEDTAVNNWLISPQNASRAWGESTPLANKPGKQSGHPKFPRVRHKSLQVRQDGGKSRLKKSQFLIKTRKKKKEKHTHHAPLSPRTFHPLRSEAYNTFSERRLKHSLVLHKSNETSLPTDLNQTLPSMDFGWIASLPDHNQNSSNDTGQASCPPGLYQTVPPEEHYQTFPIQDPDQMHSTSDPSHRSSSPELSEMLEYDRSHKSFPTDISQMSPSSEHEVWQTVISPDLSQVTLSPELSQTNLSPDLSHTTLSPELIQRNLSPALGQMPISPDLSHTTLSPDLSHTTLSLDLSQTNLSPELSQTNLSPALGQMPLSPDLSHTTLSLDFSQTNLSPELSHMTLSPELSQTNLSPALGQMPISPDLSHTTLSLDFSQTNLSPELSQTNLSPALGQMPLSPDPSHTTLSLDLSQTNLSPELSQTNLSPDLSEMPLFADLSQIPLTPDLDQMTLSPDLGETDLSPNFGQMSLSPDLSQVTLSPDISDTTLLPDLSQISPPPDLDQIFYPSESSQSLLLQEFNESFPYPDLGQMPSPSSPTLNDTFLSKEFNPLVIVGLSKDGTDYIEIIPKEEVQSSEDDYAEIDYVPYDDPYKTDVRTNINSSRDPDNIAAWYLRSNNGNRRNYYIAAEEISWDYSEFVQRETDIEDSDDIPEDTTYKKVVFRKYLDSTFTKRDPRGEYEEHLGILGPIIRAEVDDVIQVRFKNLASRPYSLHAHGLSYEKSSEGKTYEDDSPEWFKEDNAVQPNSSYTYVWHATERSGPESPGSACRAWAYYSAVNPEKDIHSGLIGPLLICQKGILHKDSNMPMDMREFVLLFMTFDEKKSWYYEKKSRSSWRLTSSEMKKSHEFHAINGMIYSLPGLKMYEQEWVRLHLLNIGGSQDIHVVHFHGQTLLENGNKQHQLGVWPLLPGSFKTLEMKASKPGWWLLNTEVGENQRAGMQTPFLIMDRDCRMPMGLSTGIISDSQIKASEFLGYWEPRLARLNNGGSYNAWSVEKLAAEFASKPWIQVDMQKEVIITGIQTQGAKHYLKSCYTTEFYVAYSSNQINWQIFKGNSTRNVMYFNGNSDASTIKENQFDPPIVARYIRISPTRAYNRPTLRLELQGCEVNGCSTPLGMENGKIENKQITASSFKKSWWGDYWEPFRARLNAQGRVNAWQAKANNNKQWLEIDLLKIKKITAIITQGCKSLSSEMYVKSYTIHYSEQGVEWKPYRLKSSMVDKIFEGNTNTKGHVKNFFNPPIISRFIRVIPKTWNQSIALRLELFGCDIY
Description: as §1

IgG = IgG binding to and release from peptide-modified streptavidin latex particles, bound and eluted IgG analysed by ELISA

Substance | binding affinity towards factor V or factor VIII (factor V or factor VIII) | binding to factor V (factor V) | binding to factor VIII (factor VIII) | also measured
HNYGVYTKVSRYL |  |  | not significantly binding | 
LEGYDLRRWEKWE |  | binds equally strong | binds equally strong | 
bio-X-QQQLITIKQISEASRKSLSRD ({Biotin-code X}-QQQLITIKQISEASRKSLSRD) [Peptide 2, biotin-labelled peptide; bio = biotin, X = linker GSGSGSG] |  |  |  | IgG bound (IgG; 10 mg peptide-modified latex, 400 μl of 0.22 mg/ml IgG, 1 h room temperature): 55 µg; IgG Elution (IgG; 400 μl 25 mM acetate buffer pH 3.0, 1 h room temperature): 52 µg; Recovery [IgG] (IgG; eluted relative to bound IgG): 95%

Now from value to substance, other results behind:

binding affinity towards factor V or factor VIII (factor V or factor VIII) | binding to factor V (factor V) | binding to factor VIII (factor VIII) | Substance | also measured
weaker |  |  | FVHPNYSKSTTDNDIALLH [iv)] | 
 | not significantly bind |  | GDSGGPMVASFHG | selectivity for factor VIII (factor VIII; versus factor V): high selectivity
weaker |  |  | TGWGYHSSREKEA [v)] | 
